Test results published in the NIST ThermoML archive (doi:10.1016/j.jct.2012.07.027).
Values joined by “and” are separate entries in the source; they are usually repeats but may differ in a detail not shown here. Equal values may be shown once.

What was measured:
[1] = for vapor or sublimation pressure: Closed cell (Static) method; for Normal melting temperature: DTA
[2] = Molar enthalpy of transition or fusion; conditions: Crystal; DSC

COC(=O)c1ccc(Br)cc1 [methyl 4-bromobenzoate]
[1]
Conditions | vapor or sublimation pressure [kPa]
293.31 K, Crystal | 0.00042
295.32 K, Crystal | 0.00054
297.3 K, Crystal | 0.00068
299.26 K, Crystal | 0.00087
301.24 K, Crystal | 0.00109
303.23 K, Crystal | 0.00139
305.21 K, Crystal | 0.00173
307.22 K, Crystal | 0.0022
309.17 K, Crystal | 0.00277
311.2 K, Crystal | 0.00345
313.13 K, Crystal | 0.00422
315.14 K, Crystal | 0.00523
317.13 K, Crystal | 0.00651
319.04 K, Crystal | 0.00797
321.09 K, Crystal | 0.00985
323.08 K, Crystal | 0.0121
325.13 K, Crystal | 0.01501
327 K, Crystal | 0.01789
329.05 K, Crystal | 0.02213
331.03 K, Crystal | 0.02686
333 K, Crystal | 0.0324
335.03 K, Crystal | 0.03924
336.96 K, Crystal | 0.04713
338.94 K, Crystal | 0.05664
340.91 K, Crystal | 0.0673
342.9 K, Crystal | 0.0811
344.79 K, Crystal | 0.09642
346.85 K, Crystal | 0.1156
348.81 K, Crystal | 0.1363
354.73 K, Liquid | 0.2096
356.68 K, Liquid | 0.233
358.69 K, Liquid | 0.259
360.68 K, Liquid | 0.2932
362.63 K, Liquid | 0.3282
364.63 K, Liquid | 0.365
366.59 K, Liquid | 0.4053
368.56 K, Liquid | 0.4511
370.53 K, Liquid | 0.5029
372.52 K, Liquid | 0.5539
374.48 K, Liquid | 0.6187
376.42 K, Liquid | 0.6825
378.43 K, Liquid | 0.752

Conditions | Normal melting temperature [°C]
[1], Crystal | 78.07

Conditions | Molar enthalpy of transition or fusion [kcal/mol]
[2] | 6.17

COC(=O)c1ccc(Cl)cc1 [methyl 4-chlorobenzoate]
[1]
Conditions | vapor or sublimation pressure [kPa]
276.44 K, Crystal | 0.00043
278.37 K, Crystal | 0.00055
280.36 K, Crystal | 0.00071
282.35 K, Crystal | 0.00092
284.34 K, Crystal | 0.00118
285.3 K, Liquid | 0.00301
286.32 K, Crystal | 0.00148
287.31 K, Liquid | 0.00363
288.29 K, Crystal | 0.00191
289.27 K, Liquid | 0.00436
290.31 K, Crystal | 0.00242
291.28 K, Liquid | 0.0052
292.3 K, Crystal | 0.00308
293.26 K, Liquid | 0.00618
294.26 K, Crystal | 0.00389
295.27 K, Liquid | 0.00739
296.29 K, Crystal | 0.00489
297.26 K, Liquid | 0.00872
298.24 K, Crystal | 0.00611
299.23 K, Liquid | 0.01031
300.23 K, Crystal | 0.00765
301.21 K, Liquid | 0.01212
302.21 K, Crystal | 0.00956
303.18 K, Liquid | 0.01428
304.18 K, Crystal | 0.01181
305.19 K, Liquid | 0.01678
306.12 K, Crystal | 0.01452
307.17 K, Liquid | 0.01959
308.18 K, Crystal | 0.01815
309.12 K, Liquid | 0.02291
310.15 K, Crystal | 0.0222
311.13 K, Liquid | 0.02675
312.09 K, Crystal | 0.02704
313.12 K, Liquid | 0.0311
314.62 K, Liquid | 0.03483
316.12 K, Liquid | 0.03877
318.07 K, Liquid | 0.0448
318.88 K, Liquid | 0.04755
321.14 K, Liquid | 0.05585
322.9 K, Liquid | 0.06343
324.86 K, Liquid | 0.07327
327.05 K, Liquid | 0.084
329.03 K, Liquid | 0.0959
331 K, Liquid | 0.1092
332.98 K, Liquid | 0.125
333.97 K, Liquid | 0.1325

Conditions | Normal melting temperature [°C]
[1], Crystal | 41.98

Conditions | Molar enthalpy of transition or fusion [kcal/mol]
[2] | 5.09

COC(=O)c1ccc(F)cc1 [methyl p-fluorobenzoate]
[1], Liquid
Conditions | vapor or sublimation pressure
268.58 K | 0.00431 kPa
270.54 K | 0.00518 kPa
272.52 K | 0.00628 kPa
274.49 K | 0.00754 kPa
276.46 K | 0.00902 kPa
278.44 K | 0.01071 kPa
280.4 K | 0.01279 kPa
281.87 K | 0.01451 kPa
283.38 K | 0.0165 kPa
285.35 K | 0.0195 kPa
287.34 K | 0.02314 kPa
289.34 K | 0.02719 kPa
291.34 K | 0.0319 kPa
293.24 K | 0.03702 kPa
295.27 K | 0.04353 kPa
297.28 K | 0.05103 kPa
299.22 K | 0.05905 kPa
301.21 K | 0.06815 kPa
303.17 K | 0.07895 kPa
305.16 K | 0.09121 kPa and 0.09107 kPa
307.18 K | 0.1051 kPa
309.2 K | 0.1209 kPa
311.15 K | 0.1388 kPa
313.16 K | 0.1594 kPa
315.12 K | 0.1817 kPa
317.15 K | 0.208 kPa
319.07 K | 0.2349 kPa
321.11 K | 0.2685 kPa
323.09 K | 0.3015 kPa
325.07 K | 0.3433 kPa
327.04 K | 0.3848 kPa
329.03 K | 0.4342 kPa
331 K | 0.4875 kPa
332.99 K | 0.549 kPa
334.97 K | 0.6142 kPa
336.95 K | 0.6904 kPa
338.92 K | 0.7681 kPa
340.9 K | 0.8612 kPa and 0.8627 kPa
342.87 K | 0.9546 kPa
344.85 K | 1.061 kPa

Conditions | Normal melting temperature [°C]
[1], Crystal | 0.6

Conditions | Molar enthalpy of transition or fusion [kcal/mol]
[2] | 3.68

COC(=O)c1ccc(I)cc1 [methyl p-iodobenzoate]
[1]
Conditions | vapor or sublimation pressure [kPa]
313.11 K, Crystal | 0.00044
315.03 K, Crystal | 0.00054
317.12 K, Crystal | 0.00069
319.05 K, Crystal | 0.00087
321.04 K, Crystal | 0.00108
323.04 K, Crystal | 0.00134
325 K, Crystal | 0.00165
326.97 K, Crystal | 0.00206
329 K, Crystal | 0.00253
330.93 K, Crystal | 0.00315
332.89 K, Crystal | 0.00387
334.91 K, Crystal | 0.00478
336.94 K, Crystal | 0.00583
342.8 K, Crystal | 0.01054
346.74 K, Crystal | 0.01524
350.73 K, Crystal | 0.02236
352.75 K, Crystal | 0.02707
356.66 K, Crystal | 0.03886
358.67 K, Crystal | 0.04652
360.6 K, Crystal | 0.05489
362.63 K, Crystal | 0.06557
364.61 K, Crystal | 0.07801
366.58 K, Crystal | 0.09145
368.45 K, Crystal | 0.1085
370.54 K, Crystal | 0.127
372.47 K, Crystal | 0.1479
374.46 K, Crystal | 0.1734
376.44 K, Crystal | 0.2047
378.41 K, Crystal | 0.2394
380.38 K, Crystal | 0.2786
386.32 K, Liquid | 0.4305
388.2 K, Liquid | 0.4717
390.26 K, Liquid | 0.5231
391.24 K, Liquid | 0.5484
392.21 K, Liquid | 0.5758
394.18 K, Liquid | 0.6343
396.15 K, Liquid | 0.698
398.14 K, Liquid | 0.7666
400.1 K, Liquid | 0.8418
402.07 K, Liquid | 0.9228
404.04 K, Liquid | 1.011
406.02 K, Liquid | 1.106

Conditions | Normal melting temperature [°C]
[1], Crystal | 113.52

Conditions | Molar enthalpy of transition or fusion [kcal/mol]
[2] | 7.1
